The text below walks through data of patent publication US9498466B2, “Pyrrole inhibitors of S-nitrosoglutathione reductase as therapeutic agents” (Nivalis Therapeutics, Inc., priority 2008, dated 2016).

One experiment concerns OVA sensitized mice. The experiment can be described thus: GSNOR inhibition assay in an in vivo animal model: OVA mouse model of asthma, methacholine challenge, Penh. The note with it: 1 mg/kg, 10 mg/kg or 30 mg/kg intravenously at 24 hours prior. The procedure: In an effort to determine if similar observations would manifest if GSNOR were inhibited pharmacologically by a GSNOR inhibitor, an OVA mouse model (i.e., the wild-type model of Que et al.) was used. In this study, OVA sensitized mice were administered 1 mg/kg, 10 mg/kg or 30 mg/kg of Compound 1 intravenously at 24 hours prior to being placed in a whole body plethysmograph (Buxco Research Systems, Wilmington, N.C.) and provided with fresh air.
Subject animals were then challenged with an aerosol of increasing dosages of the bronchoconstrictive agent methacholine, a pharmacologic agent commonly used in determining the degree of bronchial hyper-reactivity in experimental subjects. In this study mice were exposed to an increasing concentration of methacholine, each dose being presented for 3 minutes, during which time readings were taken. Doses of methacholine were 0 mg/ml, 5 mg/ml, 20 mg/ml, and 50 mg/ml. The degree of bronchial hyper-reactivity was measured as the ‘Enhanced Pause’ (Penh), a unit-less index of airway hyper-reactivity (Dohi et al., Lab Invest. 79(12):1559-1571, 1999).

The subject of experiment [1] is mouse model of ovalbumin (OVA)-induced asthma. The experiment can be described thus: Experimental asthma model: pulmonary function testing (Penh) after MCh challenge. The class given is in vivo. As to conditions: read-out: area under the curve (AUC) for Penh response reported as percent of vehicle control.
Protocol: A mouse model of ovalbumin (OVA)-induced asthma was used to screen GSNOR inhibitors for efficacy against methacholine (MCh)-induced bronchoconstriction/airway hyper-reactivity. […] Efficacy of GSNOR inhibitors were assessed using a prophylactic protocol in which GSNOR inhibitors were administered prior to challenge with MCh. Bronchoconstriction in response to challenge with increasing doses of MCh was assessed using whole body plethysmography (Penh; Buxco). […] The effect of GSNOR inhibitors were compared to vehicles and to Combivent (inhaled; IH) as the positive control. […]
In vivo airway responsiveness to methacholine was measured 24 h after the last OVA challenge in conscious, freely moving, spontaneously breathing mice with whole body plethysmography using a Buxco chamber (Wilmington, N.C.). […] The degree of bronchoconstriction was expressed as enhanced pause (Penh), a calculated dimensionless value, which correlates with the measurement of airway resistance, impedance, and intrapleural pressure in the same mouse. Penh readings were taken and averaged for 4 min. after each nebulization challenge. Penh was calculated as follows: Penh enh=[(Te/Tr−1)×(PEF/PIF)], where Te is expiration time, Tr is relaxation time, PEF is peak expiratory flow, and PIF is peak inspiratory flow×0.67 coefficient. […]

For `Cc1cc(C(N)=O)ccc1-n1c(CCC(=O)O)ccc1-c1ccc(-n2ccnc2)cc1` [Compound 1, 3-(5-(4-(1H-imidazol-1-yl)phenyl)-1-(4-carbamoyl-2-methylphenyl)-1H-pyrrol-2-yl)propanoic acid], in the experiment with OVA sensitized mice, the “broncho-constrictive responses to methacholine (Penh) compared with vehicle-only dosed animals” value is “lower broncho-constrictive responses”.

Consider `Cc1cc(C(N)=O)ccc1-n1c(CCC(=O)O)ccc1-c1ccc(Br)cc1` [Compound 7, 3-(5-(4-bromophenyl)-1-(4-carbamoyl-2-methylphenyl)-1H-pyrrol-2-yl)propanoic acid], for which the response vs control in vivo at 0.1 mg/kg in experiment [1] (single IV dose of 0.1 mg/kg at 24 h prior to MCh) is 56.1 ± 2.2%. For the same compound, the response vs control in vivo at 1 mg/kg in experiment [1] (single IV dose of 1 mg/kg at 24 h prior to MCh) worked out at 50.4 ± 3.7%.
